In PubChem BioAssay (NCI) one finds GI50 and TGI data, which are given here for eight molecules.

Among the test systems are MALME-3M melanoma; SNB-75 CNS; LOX IMVI melanoma; A498 renal; HT29 colon; MDA-MB-435; OVCAR-3 ovarian; PC-3 prostate; SK-OV-3 ovarian; SF-295 CNS.
What all share (assay): growth of human tumour cells (NCI), 48 h

SMILES strings stand for the structures. Values joined by “and” are separate entries in the source; they are usually repeats but may differ in a detail not shown here. Equal values may be shown once.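 In this assay, cells in 96-well plates receive the compound at five concentrations for 48 hours. Endpoints are linearly interpolated between the surrounding concentrations. Abbreviation: GI50, concentration required for 50% inhibition of growth. TGI marks complete inhibition of growth.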

Consider `C=C1C(=O)O[C@H]2[C@H]1CC/C(COC(=O)N1CCC[C@H]1C(=O)Nc1ccc(OC)c(C(N)=O)c1O)=C\CC[C@@]1(C)O[C@@H]21`, for which the GI50 in the assay with MALME-3M melanoma is 2.42 µM; with SNB-75 CNS it was 2.67 µM; in the assay with LOX IMVI melanoma, 1.39 µM; with A498 renal, 9.17 µM; in the assay on HT29 colon, 3.24 µM; with MDA-MB-435 it was 3.8 µM. Moreover, the GI50 in the assay with OVCAR-3 ovarian is 1.86 µM; in the assay with PC-3 prostate, 4.95 µM; with SK-OV-3 ovarian, 20.9 µM; with SF-295 CNS, 12.1 µM. For the same molecule, the TGI amounted to 6.54 µM with MALME-3M melanoma; 14.9 µM in the assay on SNB-75 CNS; 3.23 µM in the assay on LOX IMVI melanoma; 22.6 µM in the assay on A498 renal; 11.1 µM in the assay on HT29 colon; 15.9 µM in the assay on MDA-MB-435. For the same molecule, the TGI with OVCAR-3 ovarian was found to be 4.48 µM; in the assay on PC-3 prostate it was 18.9 µM; in the assay on SK-OV-3 ovarian it was 65.6 µM; in the assay with SF-295 CNS it was 27.4 µM.

With `CCN(Cc1ccccc1OC)c1ccc(CO)c(Cl)c1`, the GI50 in the assay with MALME-3M melanoma is 12.9 µM; with SNB-75 CNS, 9.47 µM; in the assay with LOX IMVI melanoma, 15.1 µM; in the assay with A498 renal, 0.0454 µM; with HT29 colon, 4.7 µM; with MDA-MB-435, 3.06 µM. The GI50 was 0.767 µM with OVCAR-3 ovarian, 12.3 µM in the assay with PC-3 prostate, 7.15 µM in the assay with SK-OV-3 ovarian and 2.71 µM with SF-295 CNS. Further, the TGI in the assay with MALME-3M melanoma is 27.5 µM; with SNB-75 CNS, 26.5 µM; in the assay on LOX IMVI melanoma, 29.6 µM; in the assay with A498 renal, 0.13 µM; in the assay on HT29 colon, 18 µM; in the assay on MDA-MB-435, 12.4 µM. Besides, the TGI was found to be 4.48 µM in the assay on OVCAR-3 ovarian, 27.9 µM in the assay on PC-3 prostate, 20.9 µM with SK-OV-3 ovarian and 15.3 µM with SF-295 CNS.

Turning to `CCCCN(Cc1ccc(F)cc1)c1ccc(CO)c(Cl)c1`, the GI50 in the assay with MALME-3M melanoma was 17.7 µM; in the assay on SNB-75 CNS, 13.1 µM; with LOX IMVI melanoma it was 16.3 µM; in the assay on A498 renal it was 0.0543 µM; in the assay with HT29 colon it was 13.7 µM; in the assay on MDA-MB-435, 17.6 µM. Further, the GI50 with OVCAR-3 ovarian is 3.74 µM; in the assay on PC-3 prostate, 13.8 µM; in the assay on SK-OV-3 ovarian, 15 µM; with SF-295 CNS, 3.96 µM. Moreover, the TGI in the assay with MALME-3M melanoma came to 33.8 µM; with SNB-75 CNS, 26.1 µM; in the assay with LOX IMVI melanoma, 31.5 µM; in the assay with A498 renal it was 0.208 µM; in the assay on HT29 colon, 29.1 µM; in the assay on MDA-MB-435, 35.1 µM. In addition, the TGI in the assay with OVCAR-3 ovarian was 12.9 µM; with PC-3 prostate it was 28.4 µM; in the assay on SK-OV-3 ovarian it was 28.2 µM; with SF-295 CNS it was 17.2 µM.

For the molecule `CC(=O)[O-].CC(=O)[O-].[NH2-].[Pt+2].c1ccc2cnccc2c1`, the GI50 is 12.9 µM in the assay with MALME-3M melanoma; > 100 µM with SNB-75 CNS; 9.19 µM in the assay on LOX IMVI melanoma; > 100 µM with A498 renal; 24.5 µM in the assay with HT29 colon; > 100 µM in the assay on MDA-MB-435. The GI50 with OVCAR-3 ovarian is 42.2 µM; in the assay on PC-3 prostate, > 100 µM; with SK-OV-3 ovarian, > 100 µM; in the assay with SF-295 CNS it was > 100 µM. Moreover, the TGI in the assay with MALME-3M melanoma is > 100 µM; with SNB-75 CNS, > 100 µM; with LOX IMVI melanoma it was 31.7 µM; in the assay with A498 renal, > 100 µM; in the assay with HT29 colon, > 100 µM; with MDA-MB-435, > 100 µM. For the same molecule, the TGI with OVCAR-3 ovarian, with PC-3 prostate, in the assay on SK-OV-3 ovarian and with SF-295 CNS was > 100 µM each time.

With `CC1C(=O)C(C)C(c2ccccc2)N(N=O)C1c1ccccc1` (stereo not drawn), the TGI with MALME-3M melanoma is > 516 µM; in the assay on SNB-75 CNS it was 64.7 µM and 80.6 µM; in the assay on LOX IMVI melanoma, > 783 µM; with A498 renal, 696 µM; in the assay with HT29 colon, > 833 µM; in the assay with MDA-MB-435, 346 µM. In addition, the TGI in the assay on OVCAR-3 ovarian was 685 µM; in the assay with PC-3 prostate, 754 µM; in the assay on SK-OV-3 ovarian, > 83.8 µM and 472 µM; in the assay on SF-295 CNS it was 498 µM. The GI50 with SNB-75 CNS was 27.2 µM; in the assay on SK-OV-3 ovarian, 103 µM; in the assay with SF-295 CNS it was 181 µM.

As to `OCc1ccc(-c2nn(Cc3ccccc3)c3ccccc23)o1`, the GI50 was 24.3 µM and 21.1 µM in the assay on MALME-3M melanoma; 11.7 µM and > 100 µM with SNB-75 CNS; 14.6 µM in the assay on LOX IMVI melanoma; 0.092 µM and 0.0445 µM in the assay with A498 renal; 15 µM and 32.8 µM in the assay on HT29 colon; 17.2 µM and 18.7 µM with MDA-MB-435. The GI50 was 1.35 µM and 1.71 µM with OVCAR-3 ovarian; 21.8 µM and 16.6 µM with PC-3 prostate; 20.7 µM and 17.6 µM with SK-OV-3 ovarian; 13.4 µM and 18.5 µM in the assay with SF-295 CNS. Further, the TGI with MALME-3M melanoma was 76.3 µM and 55.5 µM; with SNB-75 CNS, 47.2 µM and > 100 µM; in the assay on LOX IMVI melanoma, 29.8 µM and 27.7 µM; in the assay on A498 renal, 0.25 µM and 0.144 µM; with HT29 colon, 32.2 µM and > 100 µM; with MDA-MB-435 it was 40.8 µM and 39.5 µM. In addition, the TGI in the assay on OVCAR-3 ovarian was 9.8 µM and 13.4 µM; in the assay on PC-3 prostate it was 64.7 µM and 36 µM; in the assay with SK-OV-3 ovarian, 57.1 µM and 43.9 µM; in the assay on SF-295 CNS, 33.7 µM and 46 µM.

Take `C[C@@H]1COCCN1c1cc(C2(S(C)(=N)=O)CC2)nc(-c2ccnc3[nH]ccc23)n1` (stereo partly drawn): the GI50 is 5.55 µM in the assay with MALME-3M melanoma; 1.64 µM in the assay with SNB-75 CNS; 1.63 µM with LOX IMVI melanoma; 0.146 µM in the assay with A498 renal; 6.95 µM in the assay with HT29 colon; 3.74 µM with MDA-MB-435. The GI50 with OVCAR-3 ovarian is 5.76 µM; in the assay on PC-3 prostate, 12.8 µM; with SK-OV-3 ovarian, 5.27 µM; in the assay on SF-295 CNS, 1.66 µM. The TGI in the assay on MALME-3M melanoma was 34 µM; in the assay on SNB-75 CNS it was 12.8 µM; in the assay with LOX IMVI melanoma, 12.7 µM; in the assay with A498 renal, 1.69 µM; in the assay on HT29 colon, > 100 µM; in the assay with MDA-MB-435, 21.8 µM. The TGI in the assay on OVCAR-3 ovarian came out at 38.9 µM; in the assay with PC-3 prostate, 74.2 µM; in the assay with SK-OV-3 ovarian it was 56.4 µM; in the assay on SF-295 CNS, 19.8 µM.

`CN(C)CCOc1ccc2c(c1)C/C(=C/c1ncc([N+](=O)[O-])n1C)C2=O`: the TGI with MALME-3M melanoma was determined as 5.23 µM; in the assay on SNB-75 CNS it was 7.54 µM; with LOX IMVI melanoma, 14.4 µM; with A498 renal, 5.54 µM; in the assay with HT29 colon, 4.92 µM; with MDA-MB-435, 11.5 µM. The TGI with OVCAR-3 ovarian came out at 6.27 µM; in the assay with PC-3 prostate, 18.3 µM; in the assay on SK-OV-3 ovarian, 15 µM; in the assay with SF-295 CNS, 20.3 µM.
